Measured values published in PubChem BioAssay (NCI).
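These data come from cells grown in 96-well plates and exposed to compound for 48 hours at five concentrations. Abbreviation: GI50, concentration required for 50% inhibition of growth. TGI: concentration producing complete growth inhibition.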

Experiments:
Assay in all cases: NCI tumour cell line growth inhibition, 48 h
[1] = test system: A549 NSCLC
[2] = test system: NCI-H226 lung
[3] = test system: NCI-H460 lung
[4] = test system: IGROV1 ovarian
[5] = test system: K-562 leukemia
[6] = test system: SK-MEL-2 melanoma
[7] = test system: DU-145 prostate
[8] = test system: SW-620 colon
[9] = test system: M14 melanoma
[10] = test system: SF-295 CNS
[11] = test system: HOP-92 NSCLC
[12] = test system: U251 CNS
[13] = test system: SNB-75 CNS
[14] = test system: MDA-MB-231 breast
[15] = test system: SK-MEL-5 melanoma
[16] = test system: RXF 393 renal
[17] = test system: HT29 colon
[18] = test system: 786-0 renal
[19] = test system: HCT-15 colon
[20] = test system: ACHN renal
[21] = test system: OVCAR-3 ovarian
[22] = test system: BT-549 breast
[23] = test system: KM12 colon
[24] = test system: EKVX NSCLC
[25] = test system: LOX IMVI melanoma
[26] = test system: SNB-19 CNS
[27] = test system: CCRF-CEM leukemia
[28] = test system: HCT-116 colon
[29] = test system: SK-MEL-28 melanoma
[30] = test system: MCF7 breast
[31] = test system: UO-31 renal
[32] = test system: SK-OV-3 ovarian
[33] = test system: SR leukemia
[34] = test system: TK-10 renal
[35] = test system: CAKI-1 renal
[36] = test system: PC-3 prostate
[37] = test system: OVCAR-5 ovarian
[38] = test system: SN12C renal
[39] = test system: T-47D breast
[40] = test system: OVCAR-8 ovarian
[41] = test system: NCI/ADR-RES ovarian
[42] = test system: NCI-H522 lung
[43] = test system: NCI-H23 lung
[44] = test system: UACC-257 melanoma
[45] = test system: COLO 205 colon
[46] = test system: SF-268 CNS
[47] = test system: HS 578T breast
[48] = test system: OVCAR-4 ovarian
[49] = test system: HL-60(TB) leukemia
[50] = test system: MALME-3M melanoma
[51] = test system: UACC-62 melanoma
[52] = test system: MOLT-4 leukemia
[53] = test system: SF-539 CNS
[54] = test system: A498 renal
[55] = test system: HCC-2998 colon
[56] = test system: RPMI-8226 leukemia
[57] = test system: HOP-62 NSCLC

Question: What does the source list for `Cc1ccc(C2=NN(c3ccc(S(C)(=O)=O)cc3)C(=O)CC2)cc1`?
Answer: GI50 [1]: 0.615 µM; TGI [1]: > 100 µM; GI50 [2]: 42.3 µM; TGI [2]: > 100 µM; GI50 [3]: 0.402 µM; TGI [3]: > 100 µM; GI50 [4]: 1.82 µM; TGI [4]: > 100 µM; GI50 [5]: 0.408 µM; TGI [5]: > 100 µM; GI50 [6]: 0.541 µM; TGI [6]: > 100 µM; GI50 [7]: 2.48 µM; TGI [7]: > 100 µM; GI50 [8]: 0.368 µM; TGI [8]: > 100 µM; GI50 [9]: 0.419 µM; TGI [9]: > 100 µM; GI50 [10]: 0.396 µM; TGI [10]: 16.8 µM; GI50 [11]: 1.02 µM; TGI [11]: > 28.8 µM; GI50 [12]: 0.579 µM; TGI [12]: > 100 µM; GI50 [13]: 0.542 µM; TGI [13]: 9.25 µM; GI50 [14]: 1.37 µM; TGI [14]: > 100 µM; GI50 [15]: 0.633 µM; TGI [15]: > 42.1 µM; GI50 [16]: 1.11 µM; TGI [16]: > 26.1 µM; GI50 [17]: 0.349 µM; TGI [17]: > 32.9 µM; GI50 [18]: 7.26 µM; TGI [18]: > 100 µM; GI50 [19]: 0.74 µM; TGI [19]: > 100 µM; GI50 [20]: 8.52 µM; TGI [20]: > 100 µM; GI50 [21]: 0.349 µM; TGI [21]: 2.35 µM; GI50 [22]: 0.569 µM; TGI [22]: > 100 µM; GI50 [23]: 0.452 µM; TGI [23]: > 100 µM; GI50 [24]: 3.84 µM; TGI [24]: > 100 µM; GI50 [25]: 0.806 µM; TGI [25]: > 100 µM; GI50 [26]: 6.42 µM; TGI [26]: > 100 µM; GI50 [27]: 0.843 µM; TGI [27]: > 100 µM; GI50 [28]: 0.431 µM; TGI [28]: > 85.4 µM; GI50 [29]: 2.58 µM; TGI [29]: > 100 µM; GI50 [30]: 1.3 µM; TGI [30]: > 100 µM; GI50 [31]: 7.85 µM; TGI [31]: > 100 µM; GI50 [32]: 1.57 µM; TGI [32]: 21.5 µM; GI50 [33]: 0.4 µM; TGI [33]: > 100 µM; GI50 [34]: 12.8 µM; TGI [34]: > 100 µM; GI50 [35]: 1.64 µM; TGI [35]: > 100 µM; GI50 [36]: 1.78 µM; TGI [36]: > 100 µM; GI50 [37]: 10.1 µM; TGI [37]: > 100 µM; GI50 [38]: 5.57 µM; TGI [38]: > 100 µM; GI50 [39]: 3.82 µM; TGI [39]: > 100 µM; GI50 [40]: 1.35 µM; TGI [40]: > 100 µM; GI50 [41]: 0.322 µM; TGI [41]: > 100 µM; GI50 [42]: 0.225 µM; TGI [42]: 1.04 µM; GI50 [43]: 2.13 µM; TGI [43]: > 100 µM; GI50 [44]: 3.4 µM; TGI [44]: > 100 µM; GI50 [45]: 0.587 µM; TGI [45]: 5.16 µM; GI50 [46]: 6.25 µM; TGI [46]: > 100 µM; GI50 [47]: 2.24 µM; TGI [47]: > 100 µM; GI50 [48]: > 27.3 µM; TGI [48]: > 100 µM; GI50 [49]: 0.525 µM; GI50 [50]: 51.9 µM; TGI [50]: > 100 µM; GI50 [51]: 0.493 µM; TGI [51]: > 100 µM; GI50 [52]: 0.875 µM; TGI [52]: > 100 µM; GI50 [53]: 1.45 µM; TGI [53]: 23.4 µM; GI50 [54]: 0.282 µM; TGI [54]: 7.73 µM; GI50 [55]: 3.1 µM; TGI [55]: > 100 µM; GI50 [56]: 1.62 µM; TGI [56]: > 100 µM; GI50 [57]: 1.78 µM; TGI [57]: > 100 µM
